assay: Stability testing: appearance (solidification) of fine granules after storage in tightly sealed glass containers; format: physicochemical; details: additive added to metformin hydrochloride fine granules, 40° C.
Experimental: Using fine granules obtained in Examples 1-14 and Comparative Examples 1-16, a stability testing was performed. Fine granules (5 g) were each placed in glass containers, which were tightly sealed and stored at 40° C. for 1 week.
Appearance of metformin hydrochloride fine granules after storage at 40° C. for 1 week

Q: With `O=P([O-])([O-])O.[Ca+2]` [anhydrous dibasic calcium phosphate] as the molecule, how does the solidification-preventive effect read?
A: did not show a solidification-preventive effect

Q: For `O=C([O-])[O-].[Ca+2]` [calcium carbonate], which solidification-preventive effect is on record?
A: did not show a solidification-preventive effect

Q: Which solidification-preventive effect does the source give for `[Ca+2].[Cl-].[Cl-]` [calcium chloride] here?
A: a solidification-preventive effect was observed

Q: Which solidification-preventive effect does the source give for `OC[C@H]1O[C@@H](O[C@H]2[C@H](O)[C@@H](O)C(O)O[C@@H]2CO)[C@H](O)[C@@H](O)[C@H]1O` (stereo partly drawn) [lactose] here?
A: did not show a solidification-preventive effect

Q: Which solidification-preventive effect does the source give for calcium stearate here?
A: did not show a solidification-preventive effect

Q: With magnesium stearate as the molecule, how does the solidification-preventive effect read?
A: a solidification-preventive effect was observed

— patent US8192761B2, “Granular preparation containing biguanide compound” (Dainippon Sumitomo Pharma Co., Ltd., priority 2005, dated 2012)
